Earlier results as cited in patent US7098367B2, “Process for the preparation of alkylene glycols” (Saudi Basic Industries Corporation, priority 2004, dated 2006).

conditions: value may be measured experimentally, taken from references or estimated

Compound | pKa
NCCN [Example 1, Ethylenediamine (EDA)] | 9.95
CN(C)c1ccccc1 [Comparative 1, Dimethylaniline, reference compound] | 5.07
NC(=O)NC12CC3CC(CC(C3)C1)C2 [Comparative 3, N-(1-adamantyl)urea, reference compound] | 0.18
C1CCCNCC1 [Example 3, Hexamethyleneimine] | 10
C1CN2CCN1CC2 [Example 5, 1,4-diazabicyclo[2,2,2]octane (DABCO)] | 8.82
CN(C)CCN(C)C [Example 12, Tetramethylethylenediamine (TMEDA)] | 10.72
